Test results published in patent US7815907B2, “Antibodies to insulin-like growth factor I receptor” (Amgen Fremont Inc., priority 2001, dated 2010).

Assays:
[1] = tested on: rabbit IGF-IR; assay: Species crossreactivity by immunoprecipitation/Western blot; format: binding; conditions: immunoprecipitation, antibody 1 μg/ml
Method: (§1) To perform immunoprecipitation experiments, we plated cells in DMEM high glucose media supplemented with L-glutamine (0.29 mg/ml), 10% heat-inactivated FBS, and 500 μg/ml each of geneticin, penicillin and streptomycin to 50% confluence in T25 flasks. We then added 100 μl of an antibody of the invention in Hank's buffered saline solution (HBSS; Gibco BRL) at a concentration of 1 μg/ml. We incubated the plates for 30 minutes at 37° C. in an incubator and then stimulated the cells with IGF-I at 100 ng/ml for 10 minutes at room temperature. We lysed the cells in RIPA buffer (Harlow and Lane, supra) and immunoprecipitated IGF-IR with 2 μg of pan-specific SC-713 anti-IGF-IR antibody (Santa Cruz) plus protein A agarose beads for 1 hour at 4° C. We pelleted the beads and wash three times with PBS/T (PBS+0.1% Tween-20) and then boiled the beads in 40 μl Laemmli buffer containing 5% βME.
(§2) The samples prepared as described above were then analyzed by Western blot. We loaded 12 μl of each sample per lane on 4-10% gradient Novex™ gels run with 1×MES buffer (Novex™). Gels were run at 150V for 1 hour or at 200V for approximately 30 minutes. We then transferred the gel to a membrane in Novex™ transfer buffer with 10% methanol either overnight at 100 mA or for 1-1.5 hours at 250 mA. We then allowed the membrane to dry completely and blocked at room temperature with TBS (Tris-buffered saline pH 8.0) containing Superblock (Pierce Chemical Co.). We added the IGF-IR blotting antibody SC713 (Santa Cruz) to detect immunoprecipitated IGF-IR.

[2] = tested on: IGF-IR from the marmoset; assay: as above; format: binding; conditions: immunoprecipitation, antibody 1 μg/ml
Method: as §1, §2

[3] = tested on: canine IGF-IR; assay: as above; format: binding; conditions: immunoprecipitation, antibody 1 μg/ml
Method: as §1, §2

[4] = tested on: guinea pig IGF-IR; assay: as above; format: binding; conditions: immunoprecipitation, antibody 1 μg/ml
Method: as §1, §2

[5] = tested on: Rhesus IGF-IR; assay: as above; format: binding; conditions: immunoprecipitation, antibody 1 μg/ml
Method: as §1, §2

[6] = tested on: 3T3/IGF-IR cell tumors; assay: Growth inhibition of 3T3/IGF-IR cell tumors; format: in vivo, athymic (nu/nu) mice
Method: We tested whether anti-IGF-IR antibodies of the invention would function to inhibit tumor growth. We induced tumors as described above (Example VIII) and when established, palpable tumors formed (i.e. 250 mm^3, within 6-9 days), we treated the mice with a single, 0.20 ml dose of antibody by intraperitoneal injection. We measured tumor size by Vernier calipers across two diameters every third day and calculated the volume using the formula (length×[width]^2)/2 using methods established by Geran, et al., “Protocols for screening chemical agents and natural products against animal tumors and other biological systems,” Cancer Chemother. Rep. 3:1-104.
Tumors were induced in nude mice as described in Example IX. Mice with established subcutaneous tumors of approximately 250 mm^3 were treated on days 1, 8, 15 and 22 with various amounts of 2.13.2 antibody (i.p.) or 7.5 mg/kg adriamycin (i.v.), either as single agents or in combination, as described in Example IX.
Tumors were induced in nude mice as described in Example IX. Mice with large established subcutaneous tumors of slightly less than 2000 mm^3 were treated on days 1 and 8 with various amounts of 2.13.2 antibody (i.p.) or 7.5 mg/kg adriamycin (i.v.), either as single agents or in combination, as described in Example IX. […] Control, antibody alone and adriamycin alone animal groups were terminated at day 5, when the tumor size exceeded 2000 mm^3.

[7] = target: T1, IGF-IR (Homo sapiens, UniProt P08069); assay: Species crossreactivity by immunoprecipitation/Western blot; format: binding; parameters: on cells from a variety of animals; endogenous in cells; conditions: immunoprecipitation, antibody 1 μg/ml
Method: as §1
The samples prepared as described above were then analyzed by Western blot. We loaded 12 μl of each sample per lane on 4-10% gradient Novex™ gels run with 1×MES buffer (Novex™). Gels were run at 150V for 1 hour or at 200V for approximately 30 minutes. We then transferred the gel to a membrane in Novex™ transfer buffer with 10% methanol either overnight at 100 mA or for 1-1.5 hours at 250 mA. […]

[8] = target: T1, IGF-IR; assay: IGF-IR and IGF-IR phosphotyrosine levels in 3T3-IGF-IR tumors in vivo (ELISA); parameters: expressed in transfected cells; host or cells: NIH-3T3 (mouse fibroblasts); species or system athymic (nu/nu) mice
From the text: We determined whether the effects of the antibodies of the invention on IGF-IR as described in the previous examples would occur in vivo. We induced tumors in athymic mice according to published methods (V. A. Pollack et al., “Inhibition of epidermal growth factor receptor-associated tyrosine phosphorylation in human carcinomas with CP-358,774: Dynamics of receptor inhibition in situ and antitumor effects in athymic mice,” J. Pharmacol. Exp. Ther. 291:739-748 (1999). Briefly, we injected IGF-IR-transfected NIH-3T3 cells (5×10^6) subcutaneously into 3-4 week-old athymic (nu/nu) mice with 0.2 ml of Matrigel preparation. We then injected mice with an antibody of the invention intraperitoneally after established (i.e. approximately 400 mm^3) tumors formed.
After 24 hours, we extracted the tumors, homogenized them and determined the level of IGF-IR. To determine IGF-IR levels, we diluted the SC-713 antibody in Blocking buffer to a final concentration of […] and added 100 μl to each well of a Reacti-Bind Goat anti-rabbit (GAR) coated plate (Pierce). We incubated the plates at room temperature for 1 hour with shaking and then washed the plates five times with wash buffer. We then weighed tumor samples that had been prepared as described above and homogenized them in lysis buffer (1 ml/100 mg). We diluted 12.5 μl of tumor extract with lysis buffer to a final volume of 100 μl and added this to each well of a 96-well plate. We incubated the plates at room temperature with shaking for 1-2 hours and then washed the plates five times with Wash buffer. We then added 100 μl HRP-PY54 or biotinylated anti-IGF-IR antibody in Blocking buffer to each well and incubated at room temperature with shaking for 30 minutes. We then washed the plates five times with wash buffer and developed the plates. […] We then quantitated the signal by shaking for 10 seconds and measuring OD450nm. […]
Tumors were induced in nude mice as described in Example VIII. […] Tumors were extracted and IGF-IR levels were measured by ELISA as described in Example VIII.

[9] = intraperitoneal injection, tumors extracted after 24 hours

binding to human IGF-IR [7]: able to bind
IGF-IR receptor levels in tumors over time ([8]; 125 μg by intraperitoneal injection): down-regulated
IGF-IR phosphotyrosine (phosphorylated IGF-IR) in tumors [8, 9]: decrease
total IGF-IR protein in tumors [8, 9]: decrease
Substance: 2.13.2: human IgG2κ monoclonal antibody specific for IGF-IR from hybridoma 2.13.2 (ATCC PTA-2788)
binding to rabbit IGF-IR [1]: not
binding to marmoset IGF-IR [2]: not
binding to canine IGF-IR [3]: not
binding to guinea pig IGF-IR [4]: not
binding to Rhesus IGF-IR [5]: able to bind
tumor cell growth ([6]; antibody i.p. on days 1, 8, 15 and 22, single agent): inhibits tumor cell growth
growth delay versus treatment with the antibody or adriamycin alone ([6]; combination with single dose 7.5 mg/kg adriamycin i.v.): 7 days
tumor cell growth in combination with adriamycin ([6]; days 1, 8, 15 and 22, with 7.5 mg/kg adriamycin i.v.): enhances inhibition of tumor cell growth
effect on effectiveness of adriamycin ([6]; single dose antibody with single dose 7.5 mg/kg adriamycin i.v.): enhanced the effectiveness of adriamycin
tumor growth ([6]; single treatment i.p., antibody alone): inhibited the growth
efficacy against large tumors in combination with adriamycin ([6]; tumors slightly less than 2000 mm^3, days 1 and 8, with 7.5 mg/kg adriamycin i.v.): highly efficacious
